The test system of assay [1] is smooth muscle spasms induced by Ba^++ ions (ileum of the guinea pig). The assay is described as follows: In vitro antagonism of Ba^++-induced smooth muscle spasm, isolated ileum of the guinea pig (technique of MAGNUS). The following applies: agonist Ba^++, oxygen Tyrode solution, 30° C. The procedure:
(§1) The pharmacological studies of the compounds according to the invention were directed essentially to the elucidation of the antispasmodic potentialities of the cations, particularly at the level of smooth muscle spasms induced by acetylcholine, histamine and Ba^++ ions. […] The isolated organs were kept alive in a thermostatic oxygen Tyrode solution at 30° C and their contractions were recorded.

For assay [2], the system named is smooth muscle spasms induced by acetylcholine, histamine and Ba^++ ions. Kind of assay: Type of antagonist exerted, overall from the isolated organ tests (acetylcholine, histamine, Ba^++). Set-up: species or system rat; guinea pig. The following applies: for TYPE OF ANTAGONIST EXERTED: Table I, over the three agonists; for mechanism and intensity of action compared with Tiemonium and papaverine: interpretation of Table I by principles of molecular pharmacology (ARIENS). The procedure: as §1

The target of assay [3] is T1, smooth muscle spasms induced by acetylcholine (jejunum of the rat) (Rattus norvegicus, UniProt P08483).
T1 construct: The isolated organs were kept alive in a thermostatic oxygen Tyrode solution at 30° C; from tissue; host or cells: isolated rat jejunum
Kind of assay: In vitro antagonism of acetylcholine-induced smooth muscle spasm, isolated jejunum of the rat (technique of MAGNUS). The following applies: agonist acetylcholine, oxygen Tyrode solution, 30° C; for Kb: read-out: pA2 (converted). As to the method:
as §1

Assay [4] has as its target T2, smooth muscle spasms induced by histamine (ileum of the guinea pig) (Cavia porcellus, UniProt P31389).
T2 construct: The isolated organs were kept alive in a thermostatic oxygen Tyrode solution at 30° C; from tissue; host or cells: isolated guinea pig ileum
Kind of assay: In vitro antagonism of histamine-induced smooth muscle spasm, isolated ileum of the guinea pig (technique of MAGNUS). The following applies: agonist histamine, oxygen Tyrode solution, 30° C; for Kb: read-out: pA2 (converted). As to the method: The pharmacological studies of the compounds according to the invention were directed essentially to the elucidation of the antispasmodic potentialities of the cations, particularly at the level of smooth muscle spasms induced by acetylcholine, histamine and Ba^++ ions. These investigations were carried out in vitro according to the technique of MAGNUS (Pflug. Arch. Ges. Physiol. 1904, 102, 349, and 1904, 103, 515 and 525) by using as biological indicators the jejunum of the rat for the first agonist and the ileum of the guinea pig for the two other agonists. The isolated organs were kept alive in a thermostatic oxygen Tyrode solution at 30° C and their contractions were recorded.
The response curve line as a function of the dose enabled the calculation of the affinity parameters (pA2 and pD'2) of the compounds according to the invention for the different types of receptor (VAN ROSSUM J.M. - Arch. Int. Pharmacodyn. 1963, 143, 299 -330).

For assay [5], the system named is smooth muscle spasms induced by acetylcholine (jejunum of the rat). Kind of assay: In vitro antagonism of acetylcholine-induced smooth muscle spasm, isolated jejunum of the rat (technique of MAGNUS). The following applies: agonist acetylcholine, oxygen Tyrode solution, 30° C. The procedure: as §1

T1 sequence (P08483 whole entry): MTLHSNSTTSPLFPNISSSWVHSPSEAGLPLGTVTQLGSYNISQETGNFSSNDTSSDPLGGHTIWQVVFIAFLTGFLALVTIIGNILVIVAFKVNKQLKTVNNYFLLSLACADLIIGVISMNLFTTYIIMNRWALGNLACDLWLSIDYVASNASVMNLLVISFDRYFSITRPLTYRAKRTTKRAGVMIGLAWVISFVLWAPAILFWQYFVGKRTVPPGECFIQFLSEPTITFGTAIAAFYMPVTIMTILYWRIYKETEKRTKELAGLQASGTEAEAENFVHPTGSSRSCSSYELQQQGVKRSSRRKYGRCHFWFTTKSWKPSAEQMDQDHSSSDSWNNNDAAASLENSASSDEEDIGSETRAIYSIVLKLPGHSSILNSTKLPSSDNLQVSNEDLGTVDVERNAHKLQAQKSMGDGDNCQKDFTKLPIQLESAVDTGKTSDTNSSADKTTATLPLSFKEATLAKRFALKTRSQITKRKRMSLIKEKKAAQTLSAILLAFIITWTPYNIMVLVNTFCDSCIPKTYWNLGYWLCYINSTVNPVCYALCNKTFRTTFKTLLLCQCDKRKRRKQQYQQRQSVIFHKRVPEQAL
T2 sequence (P31389 whole entry): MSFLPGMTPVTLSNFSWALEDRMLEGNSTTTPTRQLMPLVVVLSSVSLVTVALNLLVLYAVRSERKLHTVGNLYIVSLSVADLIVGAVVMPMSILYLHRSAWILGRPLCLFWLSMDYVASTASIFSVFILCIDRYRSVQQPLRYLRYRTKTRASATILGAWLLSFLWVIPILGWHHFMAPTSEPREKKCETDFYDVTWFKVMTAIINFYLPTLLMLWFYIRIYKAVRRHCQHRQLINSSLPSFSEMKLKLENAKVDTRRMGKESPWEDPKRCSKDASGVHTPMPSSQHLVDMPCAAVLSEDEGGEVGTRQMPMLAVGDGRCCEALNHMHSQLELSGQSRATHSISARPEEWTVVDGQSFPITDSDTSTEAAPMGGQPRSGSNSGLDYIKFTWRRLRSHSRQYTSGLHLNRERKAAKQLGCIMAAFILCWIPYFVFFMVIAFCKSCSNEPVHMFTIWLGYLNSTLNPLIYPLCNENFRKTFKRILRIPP

The term pA2 denotes the negative logarithm of the molar antagonist concentration that doubles the agonist concentration needed for the same response. Lower therefore signals lower antagonist potency. With Tiemonium [reference compound], the pA2 stood at 4.95 in assay [1], 7 in assay [3] and 5.21 in assay [4]. Also, in assay [2], the “TYPE OF ANTAGONIST EXERTED” value is “Competitive”.

In assay [1], `C[N+]1(C)CCOC(CC(O)(c2ccccc2)c2ccccc2)C1` (centres unmarked) [Compound 2] came in with a pA2 of 4.90. Also, the “TYPE OF ANTAGONIST EXERTED” value in assay [2] is reported as “Competitive”. Moreover, the “mechanism and intensity of action compared with Tiemonium and papaverine” value in assay [2] was “great similarity of mechanism and intensity of action between compound no 2 and Tiemonium”. Besides, the Kb was 0.2 µM in assay [3] and 6.31 µM in assay [4].

Consider `COc1ccc(Cc2nccc3cc(OC)c(OC)cc23)cc1OC` [Papaverine, papaverine, reference compound], for which the results for the “pD'2” value in assay [1], in assay [5] and in assay [4] were 4.78, 5.03 and 4.98, respectively.

Regarding `C[N+]1(C)CCOC(CC(O)(c2ccc(F)cc2)c2ccc(F)cc2)C1` (centres unmarked) [Compound 7], in assay [1], the pA2 is 5.87 and the “pD'2” value is given as 4.04. For the same molecule, in assay [2], the “TYPE OF ANTAGONIST EXERTED” value is on record as “Dualist”; the “mechanism and intensity of action compared with Tiemonium and papaverine” value was “a mechanism of action which brings into play at the same time the competitive mechanism of Tiemonium and the non-competitive mechanism of papaverine”. Also, the Kb in assay [3] was 3.47 µM. Also, in assay [5], the “pD'2” value stood at 3.21. In assay [4], the “pD'2” value is given as 3.70 and the Kb was 10 µM.

(Values after US4062956A, “Substituted 2-(2-hydroxyethyl)tetrahydro-1,4 oxazines and quaternary salts thereof useful for treating spasmodic syndromes” (Centre Europeen de Recherches Mauvernay, priority 1975, dated 1977).)
